Here are results for three compounds from patent US8404704B2 (Alfa Wassermann S.p.A., priority 2003, dated 2013).

As a reminder, the Tmax is the time at which the peak concentration occurs. As a reminder, the AUC(0-t) is exposure summed from dosing to a finite time, without extrapolation to infinity. Low values mean low exposure, high ones high exposure. One may read the AUC(0-inf) as the area under the concentration-time curve extrapolated to infinity. Lower therefore signals less exposure. A word on the Cmax: it is the peak of the concentration-time curve.

Series [1] is described as follows: Reversible conversion of polymorphic forms with water content. Format: physicochemical. Conditions: water absorbed from atmospheric humidity. The text has this:
The product is hygroscopic and the obtained polymorphic form is reversible: the polymorphic form α absorbs water from atmospheric humidity, depending on the relative humidity and the exposure time. When the water content absorbed by the polymorphic form α becomes higher than 4.5%, polymorphous a converts to polymorphous β. This in its turn loses part of water by drying, changing into the polymorphic form α when a water content between […] is reached.

A short description of series [2]: Intrinsic dissolution test (USP 27 monograph 1087). Format: physicochemical. To be noted: phosphate buffer pH 7.4, 37°C; SLS 0.1%, 0.3%, 0.45% and absent.
The nature of series [3]: in vivo. Set-up: species or system Beagle female dogs. To be noted: dog; for Tmax / AUC(0-t) / AUC(0-inf) / Cmax: female, beagle, po; for AUC(0-t): AUC0-24 h; for AUC(0-inf): AUC0-inf. How it is done:
Sixteen 20 week pure-bred Beagle female dogs weighing between 5.0 and 7.5 kg, have been divided into four groups of four dogs.
Each sample was transferred into a heparinized tube and was centrifuged; the plasma was divided into 500 μl two aliquots and frozen at −20° C.
(§1) Tmax=time at which the Cmax is reached;
(§2) AUC=area under the concentration-time curve calculated through the linear trapezoidal rule.

The nature of series [4]: in vivo. Set-up: species or system Beagle female dogs. Conditions: female, beagle, dog, po; for Tmax: tmax (characterising range of the form). How it is done: Twelve 20 week pure-bred Beagle female dogs weighing between 5.0 and 7.5 kg, have been divided into three groups of four dogs.
Each sample was transferred into an heparinized tube and was centrifuged; the plasma was divided into two 500 μl aliquots and frozen at −20° C.
as §1, §2

A short description of series [5]: Intrinsic dissolution test (USP 27 monograph 1087). Format: physicochemical. To be noted: 0.1M aqueous phosphate buffer pH 7.4 with 0.45% sodium lauryl sulphate, 37°C. The text has this:
The die-holder containing the compacted pellet was then mounted on a laboratory stirring device, immersed in a dissolution medium and rotated by means of the stirring device.
A compacted pellet was formed in the die with a single face of defined area exposed on the bottom of the die so that from 50% to 75% of the compacted pellet could dissolve in an appropriate dissolution medium.
The holder containing the die was mounted on a laboratory stirring device, immersed in a glass vessel containing a dissolution medium and rotated at a rotation speed of 100 rpm by means of the stirring device, while keeping the temperature of the dissolution medium at 37±0.5° C. The dissolution medium contained in the glass vessel consisted of 1000 ml of 0.1M aqueous phosphate buffer pH 7.4 containing 4.5 g of sodium lauryl sulphate (SLS) and was kept at 37±0.5° C. for the whole duration of the test.

Turning to `CO[C@H]1/C=C/O[C@@]2(C)Oc3c(C)c(O)c4c(O)c(c5c(nc6cc(C)ccn65)c4c3C2=O)NC(=O)/C(C)=C\C=C\[C@H](C)[C@H](O)[C@@H](C)[C@@H](O)[C@@H](C)[C@H](OC(C)=O)[C@@H]1C` [rifaximin α, Rifaximin], the “water content above which form α converts to form β” value in series [1] is given as “higher than 4.5%”. For the same compound, the “disintegration of the compacted pellet” value in series [2] was no more than 10 min. For the same compound, the time of peak concentration (Tmax) in series [3] (100 mg/kg, tmax) was determined as 2.5 h. Further, in series [4], the “AUC0-24h (characterising range of the form)” value fell in the range of 0 to 100 ng·h/mL, the “AUC0-inf (characterising range of the form)” value (“AUC0-inf” for short) was 10 to 24 ng·h/mL, the “Cmax (characterising range of the form)” value fell in the range of 0.0 to 10 ng/mL and the time of peak concentration (Tmax) was in the range of 1 to 6 h. In series [4] (100 mg/kg), the “AUC0-inf” value was 0 to 110 ng·h/mL, the “Cmax (characterising range of the form)” value is 0.0 to 5.5 ng/mL and the “tmax (characterising range of the form)” value is 1.0 to 6 h.
`CO[C@H]1/C=C/O[C@@]2(C)Oc3c(C)c(O)c4c(O)c(c5c(nc6cc(C)ccn65)c4c3C2=O)NC(=O)/C(C)=C\C=C\[C@H](C)[C@H](O)[C@@H](C)[C@@H](O)[C@@H](C)[C@H](OC(C)=O)[C@@H]1C` [rifaximin γ, Rifaximin]: the Intrinsic dissolution rate in series [5] is listed as 0.1444 mg/min/cm^2. In addition, the Rifaximin dissolved was determined as 2.46 mg/cm^2 in series [5] (15 min), 4.52 mg/cm^2 in series [5] (30 min), 6.44 mg/cm^2 in series [5] (45 min) and 9.04 mg/cm^2 in series [5] (60 min). The “dose dependency of exposure (in words)” value in series [3] is “tended to increase in an over-proportional way compared to the administered dose”. The area under the curve AUC(0-t) in series [3] (25 mg/kg) is 304 ng·h/mL; in series [3] (300 mg/kg), 25000 ng·h/mL; in series [4] (100 mg/kg, AUC0-24h (characterising range of the form)), less than 22000 ng·h/mL. In addition, the total exposure AUC(0-inf) in series [3] (25 mg/kg) is 548 ng·h/mL; in series [3] (300 mg/kg) it was 25500 ng·h/mL. In addition, the Cmax in series [3] (25 mg/kg) was 114 ng/mL; in series [3] (300 mg/kg), 3150 ng/mL; in series [4] (Cmax) it was 1080 ng/mL. Also, the Tmax in series [3] (25 mg/kg, tmax) stood at 1.5 h; in series [3] (100 mg/kg), 2 h; in series [3] (300 mg/kg, tmax), 3 h. Moreover, the “AUC0-inf” value in series [4] lay within 0.0 to 22000 ng·h/mL. In addition, the “Cmax (characterising range of the form)” value in series [4] (100 mg/kg) lay in the range of 0.0 to 5000 ng/mL. Moreover, the “tmax (characterising range of the form)” value in series [4] (100 mg/kg) is 1.0 to 6.0 h.
Turning to `CO[C@H]1/C=C/O[C@@]2(C)Oc3c(C)c(O)c4c(O)c(c5c(nc6cc(C)ccn65)c4c3C2=O)NC(=O)/C(C)=C\C=C\[C@H](C)[C@H](O)[C@@H](C)[C@@H](O)[C@@H](C)[C@H](OC(C)=O)[C@@H]1C` [rifaximin β, Rifaximin], in series [5], the Intrinsic dissolution rate worked out at 0.0147 mg/min/cm^2. Moreover, the Rifaximin dissolved in series [5] (15 min) was determined as 0.28 mg/cm^2. The Rifaximin dissolved in series [5] (30 min) is reported as 0.50 mg/cm^2. The compound further registered a Rifaximin dissolved in series [5] (45 min) of 0.72 mg/cm^2. The compound also displayed a Rifaximin dissolved in series [5] (60 min) of 0.94 mg/cm^2. Besides, in series [4], the “AUC0-24h (characterising range of the form)” value lay in the range of 0 to 40 ng·h/mL, the “AUC0-inf” value is 0 to 45 ng·h/mL, the “Cmax (characterising range of the form)” value was 0.0 to 40 ng/mL and the “tmax (characterising range of the form)” value was in the range of 1 to 6 h. Further, in series [4] (100 mg/kg), the “AUC0-inf” value is 0.0 to 50 ng·h/mL, the “Cmax (characterising range of the form)” value fell in the range of 0.0 to 3.7 ng/mL and the Tmax was 1 to 6 h. In series [4] (100 mg/kg, AUC0-t (characterising range of the form)), this compound showed an AUC(0-t) of less than 40 ng·h/mL.
